Test results: US12343326B2, “Psychoactive medicines and their use for treating psychiatric and neurological conditions and disorders” (Transcend Therapeutics, Inc., priority 2021, dated 2025)

Legend:
Experiment in all cases: β-arrestin based GPCR screen (PathHunter / GPCRmax), antagonist mode
[1] = target: 168 GPCRs (Homo sapiens, UniProt P30872)
[2] = target: 168 GPCRs (Homo sapiens, UniProt P51685); conditions: CCR8, Antagonist
[3] = target: 168 GPCRs (Homo sapiens, UniProt Q96P65)
[4] = target: 168 GPCRs (Homo sapiens, UniProt P48039); conditions: MTNR1A
[5] = target: T1, 168 GPCRs (Homo sapiens, UniProt P30939); conditions: HTR1F
T1 sequence (P30939 1-366): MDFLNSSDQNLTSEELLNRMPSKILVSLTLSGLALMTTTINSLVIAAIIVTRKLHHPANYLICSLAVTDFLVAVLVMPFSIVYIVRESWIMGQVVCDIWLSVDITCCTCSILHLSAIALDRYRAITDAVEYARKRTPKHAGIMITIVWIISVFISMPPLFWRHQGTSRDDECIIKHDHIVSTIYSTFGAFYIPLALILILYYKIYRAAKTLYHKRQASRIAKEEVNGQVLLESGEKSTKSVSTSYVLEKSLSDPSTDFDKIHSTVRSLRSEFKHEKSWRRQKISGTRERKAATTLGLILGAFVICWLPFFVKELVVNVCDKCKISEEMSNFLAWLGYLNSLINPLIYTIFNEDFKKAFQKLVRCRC

[6] = target: 168 GPCRs (Homo sapiens, UniProt P18089); conditions: ADRA2B, Antagonist
168 GPCRs (Homo sapiens, UniProt P18089), sequence (P18089 whole entry): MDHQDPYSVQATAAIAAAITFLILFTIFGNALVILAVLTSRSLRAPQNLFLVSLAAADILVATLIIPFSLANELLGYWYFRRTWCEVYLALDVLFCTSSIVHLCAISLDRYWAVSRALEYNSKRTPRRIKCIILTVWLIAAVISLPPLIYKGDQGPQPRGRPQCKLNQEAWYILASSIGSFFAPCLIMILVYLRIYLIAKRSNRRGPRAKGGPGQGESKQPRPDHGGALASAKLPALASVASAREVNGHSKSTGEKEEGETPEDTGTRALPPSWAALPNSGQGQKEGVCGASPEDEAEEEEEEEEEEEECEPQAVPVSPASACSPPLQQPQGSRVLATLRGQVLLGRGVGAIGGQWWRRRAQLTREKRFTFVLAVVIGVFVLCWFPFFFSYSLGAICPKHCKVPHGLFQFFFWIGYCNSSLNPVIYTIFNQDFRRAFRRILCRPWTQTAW

[7] = target: 168 GPCRs (Homo sapiens, UniProt Q8TDS5)
[8] = target: 168 GPCRs (Homo sapiens, UniProt P32241)
168 GPCRs (Homo sapiens, UniProt P32241), sequence (P32241 31-457): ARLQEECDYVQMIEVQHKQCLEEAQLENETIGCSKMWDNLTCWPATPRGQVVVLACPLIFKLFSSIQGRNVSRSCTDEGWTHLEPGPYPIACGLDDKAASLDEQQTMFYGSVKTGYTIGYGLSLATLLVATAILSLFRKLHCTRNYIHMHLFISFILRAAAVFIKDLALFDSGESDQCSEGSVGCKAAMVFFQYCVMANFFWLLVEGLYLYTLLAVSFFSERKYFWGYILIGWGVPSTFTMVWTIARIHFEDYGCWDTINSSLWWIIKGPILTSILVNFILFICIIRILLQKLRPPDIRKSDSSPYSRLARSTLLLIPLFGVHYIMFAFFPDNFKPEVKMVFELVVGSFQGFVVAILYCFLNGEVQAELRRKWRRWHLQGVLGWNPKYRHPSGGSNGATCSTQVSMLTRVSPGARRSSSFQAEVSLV

[9] = target: 168 GPCRs (Homo sapiens, UniProt Q15077)
168 GPCRs (Homo sapiens, UniProt Q15077), sequence (Q15077 whole entry): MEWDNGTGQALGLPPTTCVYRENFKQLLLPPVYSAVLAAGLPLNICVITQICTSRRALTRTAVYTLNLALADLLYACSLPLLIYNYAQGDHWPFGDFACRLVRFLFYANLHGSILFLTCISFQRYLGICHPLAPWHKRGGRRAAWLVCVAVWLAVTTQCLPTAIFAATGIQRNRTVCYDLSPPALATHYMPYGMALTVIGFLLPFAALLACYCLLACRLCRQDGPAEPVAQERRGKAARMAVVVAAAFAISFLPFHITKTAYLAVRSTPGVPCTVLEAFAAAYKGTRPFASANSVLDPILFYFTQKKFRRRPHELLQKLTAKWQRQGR

[10] = target: 168 GPCRs (Homo sapiens, UniProt Q9UBY5)
[11] = target: 168 GPCRs (Homo sapiens, UniProt P23945); conditions: FSHR
[12] = target: 168 GPCRs (Homo sapiens, UniProt P48146)
[13] = target: 168 GPCRs (Homo sapiens, UniProt P07550); conditions: ADRB2, Antagonist
168 GPCRs (Homo sapiens, UniProt P07550), sequence (P07550 whole entry): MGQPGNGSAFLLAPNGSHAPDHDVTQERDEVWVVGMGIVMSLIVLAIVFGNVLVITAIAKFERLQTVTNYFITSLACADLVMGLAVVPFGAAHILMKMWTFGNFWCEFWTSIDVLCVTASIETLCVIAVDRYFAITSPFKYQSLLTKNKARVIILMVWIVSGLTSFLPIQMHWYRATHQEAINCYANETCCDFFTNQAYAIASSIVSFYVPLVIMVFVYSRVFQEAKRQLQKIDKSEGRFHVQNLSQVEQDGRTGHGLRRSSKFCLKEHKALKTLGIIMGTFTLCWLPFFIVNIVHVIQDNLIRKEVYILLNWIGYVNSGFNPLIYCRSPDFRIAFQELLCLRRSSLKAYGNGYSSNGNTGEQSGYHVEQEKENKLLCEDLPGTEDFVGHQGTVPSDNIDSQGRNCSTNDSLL

[14] = target: 168 GPCRs (Homo sapiens, UniProt Q9H3N8)
[15] = target: 168 GPCRs (Homo sapiens, UniProt Q96LB2)
168 GPCRs (Homo sapiens, UniProt Q96LB2), sequence (Q96LB2 whole entry): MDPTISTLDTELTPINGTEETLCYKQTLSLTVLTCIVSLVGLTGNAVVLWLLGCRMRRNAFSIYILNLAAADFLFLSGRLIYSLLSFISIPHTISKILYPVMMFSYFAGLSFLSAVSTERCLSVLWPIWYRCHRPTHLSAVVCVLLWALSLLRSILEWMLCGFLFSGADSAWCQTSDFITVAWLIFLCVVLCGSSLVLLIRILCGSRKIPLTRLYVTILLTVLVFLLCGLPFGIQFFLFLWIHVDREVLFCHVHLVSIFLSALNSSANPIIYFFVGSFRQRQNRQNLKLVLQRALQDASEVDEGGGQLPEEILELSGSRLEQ

[16] = target: 168 GPCRs (Homo sapiens, UniProt P41146)
168 GPCRs (Homo sapiens, UniProt P41146), sequence (P41146 whole entry): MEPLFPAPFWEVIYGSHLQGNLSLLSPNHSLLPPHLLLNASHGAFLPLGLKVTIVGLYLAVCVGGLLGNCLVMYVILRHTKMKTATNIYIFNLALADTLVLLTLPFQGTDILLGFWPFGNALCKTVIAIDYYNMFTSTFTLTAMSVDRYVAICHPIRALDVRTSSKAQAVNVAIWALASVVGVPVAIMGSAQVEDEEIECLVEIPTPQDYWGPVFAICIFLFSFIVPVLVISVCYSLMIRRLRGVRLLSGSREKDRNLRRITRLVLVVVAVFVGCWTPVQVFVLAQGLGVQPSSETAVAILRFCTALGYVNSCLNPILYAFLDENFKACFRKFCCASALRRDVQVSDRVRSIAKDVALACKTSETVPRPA

[17] = target: 168 GPCRs (Homo sapiens, UniProt P35368); conditions: ADRA1B, Antagonist
168 GPCRs (Homo sapiens, UniProt P35368), sequence (P35368 whole entry): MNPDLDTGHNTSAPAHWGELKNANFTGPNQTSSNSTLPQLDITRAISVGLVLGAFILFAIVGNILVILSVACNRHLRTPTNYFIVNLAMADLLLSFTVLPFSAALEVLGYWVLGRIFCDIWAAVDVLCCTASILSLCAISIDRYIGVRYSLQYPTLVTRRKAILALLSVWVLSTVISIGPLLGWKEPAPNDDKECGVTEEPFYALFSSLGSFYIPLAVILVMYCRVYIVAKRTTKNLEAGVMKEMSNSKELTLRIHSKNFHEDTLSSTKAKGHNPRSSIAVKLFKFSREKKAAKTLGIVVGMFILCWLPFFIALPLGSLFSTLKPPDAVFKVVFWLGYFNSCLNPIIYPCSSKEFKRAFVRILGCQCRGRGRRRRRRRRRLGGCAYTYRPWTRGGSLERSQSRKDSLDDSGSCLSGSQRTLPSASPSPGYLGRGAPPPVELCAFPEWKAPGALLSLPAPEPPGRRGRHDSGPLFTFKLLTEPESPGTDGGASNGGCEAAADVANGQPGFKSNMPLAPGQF

[18] = target: 168 GPCRs (Homo sapiens, UniProt P51681); conditions: CCR5, CCR5, Antagonist
168 GPCRs (Homo sapiens, UniProt P51681), sequence (P51681 whole entry): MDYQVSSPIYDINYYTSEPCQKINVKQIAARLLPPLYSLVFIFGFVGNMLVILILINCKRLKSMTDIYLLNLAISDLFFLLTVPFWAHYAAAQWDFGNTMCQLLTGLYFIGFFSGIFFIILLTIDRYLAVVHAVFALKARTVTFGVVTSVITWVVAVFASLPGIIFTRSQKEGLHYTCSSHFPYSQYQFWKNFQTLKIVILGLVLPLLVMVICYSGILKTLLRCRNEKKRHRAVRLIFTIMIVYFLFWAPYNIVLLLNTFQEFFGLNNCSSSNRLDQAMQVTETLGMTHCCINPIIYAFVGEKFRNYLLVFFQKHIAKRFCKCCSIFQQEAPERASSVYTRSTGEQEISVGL

[19] = target: 168 GPCRs (Homo sapiens, UniProt O43614)
[20] = target: 168 GPCRs (Homo sapiens, UniProt P43088); conditions: PTGFR
168 GPCRs (Homo sapiens, UniProt P43088), sequence (P43088 whole entry): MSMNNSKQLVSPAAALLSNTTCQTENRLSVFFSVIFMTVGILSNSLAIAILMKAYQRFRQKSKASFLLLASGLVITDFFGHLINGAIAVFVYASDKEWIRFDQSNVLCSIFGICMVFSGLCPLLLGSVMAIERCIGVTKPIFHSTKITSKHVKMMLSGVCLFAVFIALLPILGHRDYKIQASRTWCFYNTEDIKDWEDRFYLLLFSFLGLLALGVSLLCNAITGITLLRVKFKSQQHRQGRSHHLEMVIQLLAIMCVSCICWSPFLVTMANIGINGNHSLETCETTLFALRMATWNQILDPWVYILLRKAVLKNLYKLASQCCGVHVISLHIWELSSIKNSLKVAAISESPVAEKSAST

168 GPCRs (Homo sapiens, UniProt P51685), sequence (P51685 whole entry): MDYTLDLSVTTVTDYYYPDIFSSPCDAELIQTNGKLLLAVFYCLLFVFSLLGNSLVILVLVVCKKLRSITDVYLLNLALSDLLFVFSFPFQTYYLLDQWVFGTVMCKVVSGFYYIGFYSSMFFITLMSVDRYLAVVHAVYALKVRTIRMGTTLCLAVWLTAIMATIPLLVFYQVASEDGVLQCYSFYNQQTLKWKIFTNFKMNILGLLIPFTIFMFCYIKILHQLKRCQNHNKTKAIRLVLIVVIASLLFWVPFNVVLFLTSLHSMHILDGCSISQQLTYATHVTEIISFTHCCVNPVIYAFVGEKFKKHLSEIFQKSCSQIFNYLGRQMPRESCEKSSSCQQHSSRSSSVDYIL
168 GPCRs (Homo sapiens, UniProt P30872), sequence (P30872 whole entry): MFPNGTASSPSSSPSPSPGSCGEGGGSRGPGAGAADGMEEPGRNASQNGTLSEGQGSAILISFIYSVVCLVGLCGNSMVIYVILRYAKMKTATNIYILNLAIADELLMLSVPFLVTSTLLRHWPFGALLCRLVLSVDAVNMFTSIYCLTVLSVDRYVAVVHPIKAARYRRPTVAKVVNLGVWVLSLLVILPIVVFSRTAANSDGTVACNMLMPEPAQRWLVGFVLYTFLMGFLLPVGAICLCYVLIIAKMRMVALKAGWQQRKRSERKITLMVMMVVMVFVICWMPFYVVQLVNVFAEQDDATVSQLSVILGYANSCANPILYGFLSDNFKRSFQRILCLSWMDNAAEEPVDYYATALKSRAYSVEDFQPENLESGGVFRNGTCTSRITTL
168 GPCRs (Homo sapiens, UniProt Q96P65), sequence (Q96P65 whole entry): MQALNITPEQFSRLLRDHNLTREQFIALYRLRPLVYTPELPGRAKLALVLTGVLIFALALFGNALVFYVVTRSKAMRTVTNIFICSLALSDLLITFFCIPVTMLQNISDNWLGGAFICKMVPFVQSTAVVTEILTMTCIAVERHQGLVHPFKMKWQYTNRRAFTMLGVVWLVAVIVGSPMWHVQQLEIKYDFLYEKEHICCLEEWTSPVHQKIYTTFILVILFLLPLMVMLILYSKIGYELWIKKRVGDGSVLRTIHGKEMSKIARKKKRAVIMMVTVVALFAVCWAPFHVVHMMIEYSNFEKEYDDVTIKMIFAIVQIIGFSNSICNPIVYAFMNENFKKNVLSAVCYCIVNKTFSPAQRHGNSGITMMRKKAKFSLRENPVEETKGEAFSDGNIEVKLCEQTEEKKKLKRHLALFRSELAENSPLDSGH

CNC(C)C(=O)c1ccc2c(c1)OCO2 (stereo not shown) [methylone, 3,4-methylenedioxy-N-methylcathinone]
activity at 10 µM ([1]; SSTR1, Antagonist mode, 10 uM): 20.9% | activity at 1 µM ([1]; SSTR1, Antagonist, 1 uM): 32.4% | activity at 1 µM ([2]; 1 uM): 4.7% | activity at 10 µM ([2]; 10 uM): -0.3% | activity at 10 µM ([3]; GPR103, Antagonist mode, 10 uM): 7% | activity at 1 µM ([3]; GPR103, Antagonist, 1 uM): 4.1% | activity at 10 µM ([4]; Antagonist mode, 10 uM): 7.8% | activity at 1 µM ([4]; Antagonist, 1 uM): 30.8% | activity at 10 µM ([5]; Antagonist mode, 10 uM): 9.2% | activity at 1 µM ([5]; Antagonist, 1 uM): 14.4% | activity at 1 µM ([6]; 1 uM): 8.5% | activity at 10 µM ([6]; 10 uM): 6.3% | activity at 10 µM ([7]; OXER1, Antagonist mode, 10 uM): 7.6% | activity at 1 µM ([7]; OXER1, Antagonist, 1 uM): 2.9% | activity at 10 µM ([8]; VIPR1, Antagonist mode, 10 uM): 5.3% | activity at 1 µM ([8]; VIPR1, Antagonist, 1 uM): -0.7% | activity at 10 µM ([9]; P2RY6, Antagonist mode, 10 uM): 2.6% | activity at 1 µM ([9]; P2RY6, Antagonist, 1 uM): 6.5% | activity at 10 µM ([10]; EDG7, Antagonist mode, 10 uM): 17.9% | activity at 1 µM ([10]; EDG7, Antagonist, 1 uM): 19.5% | activity at 10 µM ([11]; Antagonist mode, 10 uM): -8.4% | activity at 1 µM ([11]; Antagonist, 1 uM): -11.8% | activity at 10 µM ([12]; NPBWR2, Antagonist mode, 10 uM): -14% | activity at 1 µM ([12]; NPBWR2, Antagonist, 1 uM): -14.1% | activity at 1 µM ([13]; 1 uM): 18.1% | activity at 10 µM ([13]; 10 uM): 20.4% | activity at 10 µM ([14]; HRH4, Antagonist mode, 10 uM): -14% | activity at 1 µM ([14]; HRH4, Antagonist, 1 uM): -11.6% | activity at 10 µM ([15]; MRGPRX1, Antagonist mode, 10 uM): -10.2% | activity at 1 µM ([15]; MRGPRX1, Antagonist, 1 uM): -6.5% | activity at 10 µM ([16]; OPRL1, Antagonist mode, 10 uM): 13.2% | activity at 1 µM ([16]; OPRL1, Antagonist, 1 uM): 17.1% | activity at 1 µM ([17]; 1 uM): 17.9% | activity at 10 µM ([17]; 10 uM): 20.6% | activity at 1 µM ([18]; 1 uM): 1.7% | activity at 10 µM ([18]; 10 uM): -0.5% | activity at 10 µM ([19]; HCRTR2, Antagonist mode, 10 uM): 2.4% | activity at 1 µM ([19]; HCRTR2, Antagonist, 1 uM): 6.4% | activity at 10 µM ([20]; Antagonist mode, 10 uM): 0% | activity at 1 µM ([20]; Antagonist, 1 uM): 0.9%
